Results reported in paper PMC12005787, “Synthetic Lethality of SHP2 and XIAP Suppresses Proliferation and Metastasis in KRAS‐mutant Nonsmall Cell Lung Cancer” (Advanced Science, 2025).

Experiments:
[1] = system: NCI-H2122, A549, and NCI-H1944 cells; test: Cell senescence β-galactosidase staining; assay type: cell-based, human; conditions: NCI‐H2122 cells; candidate drugs 10 μM
Experimental: Cell senescence β-galactosidase staining
NCI-H2122, A549, and NCI-H1944 cells in the logarithmic growth phase were seeded into 48-well plates and cultured overnight. The supernatant was aspirated and fresh serum-free (0%), low-serum (3%), or regular serum (10%) medium with different drugs was added for 48 h. When the supernatant was discarded, β-galactosidase staining fixation fluid were added for 15 min and β-galactosidase staining solution were imported overnight at 37 ℃.
Finally, the staining results were recorded using an inverted microscope.

SHP2 = biological target: T1, SHP2 (Homo sapiens, UniProt Q06124); test: Cellular thermal shift assay (CETSA); assay type: binding; conditions: NCI‐H2122 cell lysate
T1 construct: endogenous in cells; host or cells: NCI-H2122
T1 sequence (Q06124 1-593): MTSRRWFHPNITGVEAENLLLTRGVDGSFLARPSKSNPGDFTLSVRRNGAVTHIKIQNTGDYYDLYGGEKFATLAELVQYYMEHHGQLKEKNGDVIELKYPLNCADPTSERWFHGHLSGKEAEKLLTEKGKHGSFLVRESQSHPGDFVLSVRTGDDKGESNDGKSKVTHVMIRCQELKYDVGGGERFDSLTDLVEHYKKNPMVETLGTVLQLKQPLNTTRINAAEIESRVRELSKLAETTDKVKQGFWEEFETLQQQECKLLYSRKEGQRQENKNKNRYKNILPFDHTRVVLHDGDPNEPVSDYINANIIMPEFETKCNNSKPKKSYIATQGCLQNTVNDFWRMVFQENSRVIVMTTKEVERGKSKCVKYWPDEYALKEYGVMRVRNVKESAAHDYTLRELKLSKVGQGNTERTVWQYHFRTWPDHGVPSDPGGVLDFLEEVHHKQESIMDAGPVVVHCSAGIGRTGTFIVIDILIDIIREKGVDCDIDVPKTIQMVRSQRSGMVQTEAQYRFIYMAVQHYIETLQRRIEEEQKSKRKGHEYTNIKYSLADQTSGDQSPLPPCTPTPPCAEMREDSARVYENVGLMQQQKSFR
Experimental: (§1) NCI‐H2122 cells were harvested and resuspended with pre‐cooled PBS containing 1% cocktail, which was then frozen in liquid nitrogen for 5 min and thawed in a water bath at 37 °C for 5 min for three repetitions. The supernatant was collected via centrifugation at 4 °C (15 000 × g, 20 min), divided into two equal portions; one was added with test drugs or various concentrations of embelin, and the other was added with DMSO as control and subsequently incubated at 25 °C for 30 min. All samples were heated at temperatures ranging from 52–70 °C for 3 min, and subsequently in an ice bath for 3 min and collected by centrifugation at 4 °C (15 000 × g, 20 min), and added with protein sampling buffer at 100 °C for 5 min, followed by analysis of protein stability using western blotting.

A549 and NCI‐H2122 cells = test: Cell proliferation in monolayer culture (CCK-8); assay type: cell-based, human
Experimental: (§2) For the adherent cell viability assay, cells in the logarithmic growth phase were seeded in 96-well culture plates at a density of 5×103 well-1 and incubated overnight. Diluted compounds or DMSO were added, or specific treatments were incubated at 37 °C and 5% CO2 for 24 h or 48 h. Cell viability was determined using CCK-8 or CellLightTM Cell Viability Assay Kit, according to the manufacturer's protocol. The luminescence signals of the treated samples were normalized to those of the DMSO group. […]
Figure S7. Targeting SHP2 and XIAP produces a synthetic lethal effect. (A) Effects of NSC-87877 on cell viability of A549 and NCI-H2122 cells after 24 and 48 h were determined using the CCK-8. Bars, ± SEM. The curves were plotted using a variable slope (four-parameter) non-linear fit. (B, E, F, and I) Effects of Na3VO4 (B), birinapant (E), BV-6 (F), and LCL161 (I) on cell viability of human NCI-H2122 cells at 48 h were determined using the CCK-8. *p < 0.05, **p < 0.01 and ***p < 0.001 compared to control group (unpaired two-tailed Student’s t-test).(C, G) Effects of SHP099 (C) and GDC-0152 (G) on cell viability after 24 and 48 h were determined using the CCK-8. Bars, ± SEM. The curves were plotted using a variable slope (four-parameter) non-linear fit.(D, H) Effects of SHP099 (D) and GDC-0152 (H) on cell viability were determined after 48 h using intracellular ATP chemiluminescence. **p < 0.01 and ***p < 0.001 compared to control group (unpaired two-tailed Student’s t-test).(J) Effects of SHP099 and GDC-0152 separately and in combination, and the effect of embelin for 24 h on the cell viability were assessed using intracellular ATP […]
tailed Student’s t-test).(K) Effects of SHP099 and GDC-0152 separately and in combination with […] on the cell viability of human KRAS-WT and -mutant cells were assessed using a colony formation assay. (L, M) A549 and NCI-H2122 cells were instantaneously transfected with siPTPN11 and siXIAP separately and together for 24 h under

[2] = system: KRAS‐mutant NSCLC cells in 3D culture; test: Cell proliferation in 3D cell culture (ATP chemiluminescence); assay type: cell-based
Experimental: (§3) supplies are listed in Supplementary Table S5. […]
For the adherent cell viability assay, cells in the logarithmic growth phase were seeded in 96-well culture plates at a density of 5×103 well-1 and incubated overnight. Diluted compounds or DMSO were added, or specific treatments were incubated at 37 °C and 5% CO2 for 24 h or 48 h. Cell viability was determined using CCK-8 or CellLightTM Cell Viability Assay Kit, according to the manufacturer's protocol. The luminescence signals of the treated samples were normalized to those of the DMSO group.
For spherical cell viability assays, cells in the logarithmic growth phase were inoculated ata density of 4×10^3 well-1 into 96-well spherical cell microplates and incubated at 37 °C, 5% CO2 for 24 h or 48 h. Cell viability was measured using the CellTiter-Glo® Luminescent Cell Viability 3D Cell Viability Assay Kit, according to the manufacturer’s protocol. The remaining steps were the same as those described above. […]
Figure S7. Targeting SHP2 and XIAP produces a synthetic lethal effect. (A) Effects of NSC-87877 on cell viability of A549 and NCI-H2122 cells after 24 and 48 h were determined using the CCK-8. Bars, ± SEM. […]
tailed Student’s t-test).(K) Effects of SHP099 and GDC-0152 separately and in combination with […] on the cell viability of human KRAS-WT and -mutant cells were assessed using a colony formation assay. […]

NCI‐H2122 tumor = test: NCI-H2122 subcutaneous transplantation tumor model; assay type: in vivo, BALB/c‐nu mouse; conditions: i.p., q2d
Experimental: NCI‐H2122 cells in the logarithmic growth phase were collected by mixing serum‐free RMPI‐1640 medium and Matrigel matrix gel, and injected subcutaneously into the right axilla of thymus‐less male BALB/c‐nu nude mice. Tumor volume was calculated according to V = ab^2/2 (where a and b are the long and short diameters of the tumor, respectively), and body weight was recorded every 3 days. When the tumor volume reached 100 mm^3, the mice were randomly divided into six groups (ten mice in each group): Control group (i.p, q2d), SHP099 (20 mg kg^−1, i.p, q2d) group, GDC‐0152 (20 mg kg^−1, i.p, q2d) group, SHP099 (20 mg kg^−1, i.p, q2d) + GDC‐ 0152 (20 mg kg^−1, i.p, q2d) co‐administration group, embelin (20 mg kg^−1, i.p, q2d) medium‐dose group and embelin (30 mg kg^−1, i.p, q2d) high‐dose group. When the tumor volume reached 1000 mm^3, all experimental mice were sacrificed, and tumor tissues and major organs, such as the heart, liver, spleen, lungs, and kidneys, were collected for further study.

XIAP = biological target: T2, XIAP (Homo sapiens, UniProt P98170); test: Cellular thermal shift assay (CETSA); assay type: binding; conditions: 56 and 62 ℃
T2 construct: endogenous in cells; host or cells: NCI-H2122
Experimental: as §1

A549 cells = test: Cell viability assay (CCK-8); assay type: cell-based; conditions: Homo sapiens; A549, KRAS G12S, 24 h; read-out: IC50 at 24 h
Experimental: as §3
(§4) KRAS-mutant and wild-type cells are listed in Supplementary Table S7.
as §2

NCI-H1975 cells = test: Cell viability assay (CCK-8); assay type: cell-based; conditions: Homo sapiens, NCI-H1975, 24 h, NCI-H1975, RAS-wild type, EGFR L858R/T790M
Experimental: as §3, §4, §2

T2 sequence (P98170 whole entry): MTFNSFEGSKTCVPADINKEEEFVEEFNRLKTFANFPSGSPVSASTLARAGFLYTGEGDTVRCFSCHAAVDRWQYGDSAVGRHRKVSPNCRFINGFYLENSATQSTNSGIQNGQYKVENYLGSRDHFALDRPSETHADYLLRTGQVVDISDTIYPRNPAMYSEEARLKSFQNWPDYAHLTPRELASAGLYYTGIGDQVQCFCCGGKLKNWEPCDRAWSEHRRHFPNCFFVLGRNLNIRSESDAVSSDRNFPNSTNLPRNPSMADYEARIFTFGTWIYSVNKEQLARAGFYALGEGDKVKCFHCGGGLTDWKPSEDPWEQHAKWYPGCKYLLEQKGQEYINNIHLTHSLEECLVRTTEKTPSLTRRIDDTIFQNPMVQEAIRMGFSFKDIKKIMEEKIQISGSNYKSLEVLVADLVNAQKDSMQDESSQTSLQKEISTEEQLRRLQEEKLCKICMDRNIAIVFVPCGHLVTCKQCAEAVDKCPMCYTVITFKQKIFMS

CN[C@@H](C)C(=O)N[C@H](C(=O)N1CCC[C@H]1C(=O)Nc1snnc1-c1ccccc1)C1CCCCC1 [GDC‐0152]
induction of cell senescence [1]: induced cellular senescence | effect on SHP2 protein stability (CETSA) (SHP2): did not affect SHP2 protein stability | effect on cell proliferation in monolayer cell culture mode (A549 and NCI‐H2122 cells): almost no effect | effect on cell proliferation in 3D cell culture [2]: partially inhibited cell proliferation | effect on body weight of the mice (NCI‐H2122 tumor): little or no effect on the body weight | effect on weights of hearts, livers, lungs, and kidneys and structure of hearts and kidneys (NCI‐H2122 tumor): no significant effect

O=S(=O)(O)c1ccc2cc(N=Nc3cc(S(=O)(=O)O)c4cccnc4c3O)ccc2c1 [NSC‐87877]
effect on XIAP protein stability (CETSA) (XIAP): did not affect XIAP protein stability | effect on cell proliferation in monolayer cell culture mode (A549 and NCI‐H2122 cells): almost no effect

[Na+].[Na+].[Na+].[O]=[V]([O-])([O-])[O-] [Na3VO4]
effect on XIAP protein stability (CETSA) (XIAP): did not affect XIAP protein stability | effect on cell proliferation in monolayer cell culture mode (A549 and NCI‐H2122 cells): almost no effect

C#Cc1cccc(Nc2ncnc3cc(OCCOC)c(OCCOC)cc23)c1 [erlotinib]
IC50 (A549 cells): > 100 µM | IC50 (NCI-H1975 cells): > 100 µM
